Results as given in patent US6365616B1, “Methimazole derivatives and tautomeric cyclic thiones to treat autoimmune diseases” (Sentron Medical, Inc., priority 1998, dated 2002).
Marks after values point to notes of the source that are not given here.

Experiments:
thyroglobulin RNA = test: Northern analysis of thyroglobulin RNA levels in FRTL-5 cells; type: cell-based, rat; details: for increase of TG RNA levels compared with MMI: Table 17, 1 mM; for % increase in TG RNA expression: 1 mM, 6H medium, 40 hours
NOD mice = test: Prevention of glucosuria and diabetes in female NOD mice; type: in vivo, mouse; details: 5-phenylmethimazole at a fifth the MMI concentration
Excerpt: Female NOD mice were also obtained from Jackson Labs, along with control mice from which the strain was developed (Makino et al., Exp. Anim. 29:1-13 (1980); Wicker, L. S., et al., Diabetes 35:855-860 (1986)). Animals showing urine Tes-Tape positivity greater than 1 + were considered positive and to have diabetes (Wicker, L. S., et al., ibid (1986)). At 8-16 weeks, […] of NOD mice develop glucosuria and diabetes according to the literature (Wicker, L. S., et al., ibid (1986)).
Table 20 presents results of the ability of Female NOD mice (5 animals were in each group) to develop glucosuria and diabetes when treated with MMI and compound 10 (5-phenylmethimazole) at a fifth the MMI concentration, by comparison to no treatment or treatment with 2-mercaptoimidazole. Mice were from Jackson Labs in this experiment. Animals showing urine Tes-Tape positivity greater than 1+ were considered positive and to have diabetes.
Compound 10 and MMI are therefore effective in preventing diabetes in the NOD mouse example of diabetes.

[1] = test system: protein/DNA complex with Fragment 127 of the MHC class I 5′-flanking region; test: Gel shift (EMSA) with downstream 127 class I probe, extracts from treated FRTL-5 cells; type: cell-based, rat; details: 5H cells treated 48 hours
Experimental: Cells were grown in 6H medium with 5 % calf serum for 6-7 days to 70-80% confluence, then shifted to 5H medium with 5 % calf serum for 5 days. TSH (1×10^−10 M), gamma-interferon (100 U/ml), MMI (5 mM), and different concentrations of MMI derivatives or tautomeric cyclic thiones (0.0001 to 10 mM) were added as appropriate for […]. Cells were then harvested and extracts were made by a modification of a method of Dignam, J., et al. Methods in Enzymology, 101:582-598 (1983). In brief, cells were harvested by scraping after being washed twice with cold phosphate-buffer saline (PBS). Subsequently they were pelleted, washed in cold PBS and then pelleted again. The pellet was resuspended in Dignam buffer C (20 mM Hepes buffer at pH 7.9, 1.5 mM MgCl2, 0.42 M NaCl, 25% glycerol, 0.5 mM dithiotreitol (DTT), 0.5 mM phenylmethylsulfonylfluoride (PMSF), 1 […] pepstatin). The final NaCl concentration was adjusted on the basis of cell pellet volume to 0.42 M and cells were lysed by repeated cycles of freezing and thawing. Extracts were then centrifuged at 10,000×g at 4° C. for 20 min. The supernatant was recovered, aliquoted and stored at −70° C.
Binding reactions were performed in a volume of 20 μl for 30 min at room temperature. The typical reaction mixture contained 1.5 fmol of ^32P DNA, 3 μg of cell extracts, 1 to 3 μg of poly (dI-dC) in 10 mM Tris-Cl (pH 7.9), 1 mM MgCl2, 1 mM DTT, 1 mM ethylenediamine tetra acetic acid (EDTA), and 5 % glycerol. After incubation, reaction mixtures were subjected to electrophoresis in 4% polyacrylamide gels for 90-120 min at 160 V in 0.5× TBE (Sambrook, J., et al., Molecular Cloning: A Laboratory Manual, 2nd ed. Cold Spring Harbor Press, NY, 2: 11.23-11.44 (1989)), then dried and autoradiographed. Probes were labeled with [α32P] deoxy CTP by Klenow enzyme (In Vitro labeling kit, Amersham) following the manufacturer's instructions, or by [γ^32P] ATP using T4 polynucleotide kinase. Labeled probes were then purified either through G-50 columns (5 prime→3 Prime) or on an 8% polyacrylamide gel.
FIG. 3 denotes the sequence of the downstream region of the PD1 promoter. The location of enhancer A (−180 to −170 bp), the interferon response element (IRE; −161 to −150 bp), and the cAMP response element (CRE; −107 to −100 bp) are noted. The downstream silencer is between −127 and −80 bp (Saji, et al., ibid, 20096-20107 (1997)). Using a 127 bp probe, −125 to +1 bp, MMI (lane 4) or TSH (lane 10) induce the formation of a rapidly migrating protein/DNA complex (FIG. 4) which is clearly evident 24 to 48 h after SH cells are treated. MMI derivatives can also increase this complex, as illustrated for compound 8 in FIG. 4 (lanes 1 to 3). The time most suitable for measurement is 24 to 48 h (FIG. 4) the complex can be quantitated by comparison to control (lane 7 or 9) using densitometry or the phosphoimager as noted earlier. In this case, the increase over control (set at 1) is measured in arbitrary units relative to the maximal increase induced by 5 mM MMI which is arbitrarily set at 10. The results using all 11 compounds in Table 1, each added to cells at different concentrations 48 hours before extracts were prepared, are summarized in Table 3.

(NZB x NZW)F1 mice = test: Prevention of proteinuria (SLE model) in female (NZB x NZW)F1 mice; type: in vivo; details: for Animals with proteinuria, 30-500 (mg/dl proteinuria) / Animals with proteinuria, >500 (mg/dl proteinuria) / Animals with proteinuria, Neg-Trace (mg/dl proteinuria) / development of proteinuria at 7.5 mos: oral; for Animals with proteinuria, 30-500 (mg/dl proteinuria) / Animals with proteinuria, >500 (mg/dl proteinuria) / Animals with proteinuria, Neg-Trace (mg/dl proteinuria): 0.05% MMI, 0.01% 5-phenylmethimazole, 0.05% 2-mercaptoimidazole; for development of proteinuria at 7.5 mos: compound 10 at a fifth the MMI concentration
Excerpt: Female (NZB x NZW)F1 mice were obtained from Jackson Labs. Animals were followed with AMES 2855 Uristix (Miles) to semiquantitatively measure proteinuria. Proteinuria was taken as a measure of development of SLE and MMI suppression of proteinuria as suppression of renal complexes in kidney (Mozes et al., J. Clin Immunology 18:106-113 (1998)). At 7-8 mos. mice develop proteinuria reflecting renal disease. Treatment was from 2 mos to 6 mos of age. Treatment was oral. Each group had 8 animals to start.
In this experiment, immunohistology was performed in a blind fashion on 5 μm thick frozen kidney sections which were fixed and stained with FITC-conjugated goat antibodies to immunoglobulin G (γ chain specific) as described (Mozes, et al., Science 261:91-93 (1993); Mozes, E., et al., ibid (1998)). Compound 10, a tautomeric cyclic thione, and MMI are effective in preventing SLE in this experimental model.
Death of some animals in this experiment occurred for technical reasons, i.e. flooding of cages, handling, etc., in the last 2 mos. However, losses in the control group were similar to experimental groups. MMI, 2-mercaptoimidazole, and Compound 10 treatments were administered during the period between 2 and 6.25 months of age.

MHC class II RNA = test: Northern analysis of MHC class II RNA levels in FRTL-5 cells; type: cell-based, rat; details: 100 U/ml γ-interferon, 6H medium, 40 hours

Row | SMILES | increase of TG RNA levels compared with MMI (thyroglobulin RNA) | development of glucosuria and diabetes by 12 weeks (NOD mice) | % increase over control relative to the maximal (5 mM) MMI-increased silencer complex which is set at 10 ([1]; 10 μM) | % increase over control relative to the maximal (5 mM) MMI-increased silencer complex which is set at 10 ([1]; 100 μM) | % increase over control relative to the maximal (5 mM) MMI-increased silencer complex which is set at 10 ([1]; 1 mM) | Animals with proteinuria, 30-500 (mg/dl proteinuria) ((NZB x NZW)F1 mice; 6 mos) | Animals with proteinuria, >500 (mg/dl proteinuria) ((NZB x NZW)F1 mice; 6 mos) | Animals with proteinuria, Neg-Trace (mg/dl proteinuria) ((NZB x NZW)F1 mice; 6 mos) | Animals with proteinuria, 30-500 (mg/dl proteinuria) ((NZB x NZW)F1 mice; 7.5 mos) | Animals with proteinuria, >500 (mg/dl proteinuria) ((NZB x NZW)F1 mice; 7.5 mos) | Animals with proteinuria, Neg-Trace (mg/dl proteinuria) ((NZB x NZW)F1 mice; 7.5 mos) | significant numbers of immune complexes in kidneys (FIG. 15) ((NZB x NZW)F1 mice; immunohistology of frozen kidney sections) | toxicity in vivo ((NZB x NZW)F1 mice; one-fifth the MMI concentration, NZB and NOD mouse experiments) | development of proteinuria at 7.5 mos ((NZB x NZW)F1 mice) | % inhibition of class II RNA expression (MHC class II RNA; 100 μM) | % inhibition of class II RNA expression (MHC class II RNA; 1 mM) | % increase over control relative to the maximal (5 mM) MMI-increased silencer complex which is set at 10 ([1]; 5 mM) | % increase in TG RNA expression (thyroglobulin RNA)
1 | Cn1c(-c2ccccc2)cnc1S [Compound 10, 5-Phenylmethimazole] | no comparable increase | prevented glucosuria | 3 ± 1.5% | 7 ± 1% | 10 ± 1% | 0 of 8 | 0 of 8 | 8 of 8 | 1 of 6 | 0 of 6 | 5 of 6* | not true | nontoxic | significantly prevented proteinuria | 75 ± 15% | 87 ± 4% |  | 
2 | Sc1nc2ccccc2[nH]1 [Compound 4, 2-Mercaptobenzimidazole] |  |  | 0% | 3 ± 0.5% | 9 ± 1.5% |  |  |  |  |  |  |  |  |  |  |  | Insol | 
3 | CSc1nccn1C [Compound 7, S-Methylmethimazole] | no comparable increase |  | 0% | 2 ± 1% | 6 ± 0.5% |  |  |  |  |  |  |  |  |  | 22 ± 17% | 62 ± 14% |  | 122 ± 14%
4 | O=[N+]([O-])c1ccc2[nH]c(S)nc2c1 [Compound 5, 2-Mercapto-5-nitrobenzimidazole] |  |  | 0% | 0% | 0% |  |  |  |  |  |  |  |  |  |  |  | Insol | 
5 | Cn1ccn(C)c1=S [Compound 8, N-Methylmethimazole] | no comparable increase |  | 0% | 3 ± 2% | 9 ± 1% |  |  |  |  |  |  |  |  |  | 32 ± 5% | 59 ± 12% |  | 129 ± 7%
6 | Sc1ncc[nH]1 [Compound 3, 2-Mercaptoimidazole] |  | developed diabetes | 0% | 0% | 0% | 4 of 7 | 0 of 7 | 3 of 7 | 3 of 6 | 3 of 6 | 0 of 6 |  |  | developed significant proteinuria |  |  | 0% | 
7 | Cc1cnc(S)n1C [Compound 9, 5-Methylmethimazole] |  |  | 0% | 0% | 1.5 ± 1.5% |  |  |  |  |  |  |  |  |  |  |  | 2.5 ± 1% | 
8 | Cc1ncc([N+](=O)[O-])n1CCO [Compound 2, 2-Methyl-5-nitro-1-imidazole ethanol] |  |  | 0% | 0% | 5 ± 1% |  |  |  |  |  |  |  |  |  | 11 ± 10% | 45 ± 13% | 10 ± 2% | 
9 | Cc1ccc2[nH]c(S)nc2c1 [Compound 6, 2-Mercapto-5-methylbenzimidazole] |  |  | 0% | 0% | 3 ± 2% |  |  |  |  |  |  |  |  |  |  |  | Insol | 
